Reference: patent publication US12257246B2, “Composition of 2,4,6-trifluoro-n-[6-(1-methyl-piperidin-4-carbonyl)-pyridin-2-yl[-benzamide” (CoLucid Pharmaceuticals, Inc., priority 2009, dated 2025)
“Also recorded” adds a separate entry of the source.

Test: Oral pharmacokinetics (solution and tablet), Study 1 and Study 2
Assay type: in vivo, human
Procedure: Plasma samples were analyzed for Compound I using a validated liquid chromatography with tandem mass spectrometric detection (LC/MS/MS) method. Relative bioavailability of tablet and solution formulations for AUCt, AUC∞, and Cmax were assessed. A linear mixed effects model was fitted to the log-transformed PK parameters (AUCt, AUC∞, and Cmax). Included in the model were treatment, period, and sequence as fixed factors and subjects nested within sequences as a random factor. For the relative bioavailability analysis, the tablet formulation was the test and the solution formulation was the reference. 90% confidence intervals and ratios for the relative mean in-transformed AUCt, AUC∞, and Cmax of the test to reference formulation were calculated.

SMILES: CN1CCC(C(=O)c2cccc(NC(=O)c3c(F)cc(F)cc3F)n2)CC1 [Compound I, 2,4,6-trifluoro-N-[6-(1-methyl-piperidin-4-ylcarbonyl)-pyridin-2-yl]-benzamide]
- Tmax (both sexes, human, plasma, 50 to 400 mg tablet formulation, oral, read-out: Median tmax): 1.5 to 2.5 h
- oral bioavailability (human, in vivo, po): orally bioavailable
- bioavailability (male, human, plasma, 200 mg oral dose, read-out: relative bioavailability of the tablet to the solution): 100%
- dose linearity / proportionality of oral pharmacokinetics (oral 25 to 400 mg, males and females): dose linearity; also recorded: dose proportionality
- oral dose achieving plasma levels previously associated with efficacy by the i.v. route (solution and tablet): ≥ 50 mg
